This is an account of results in publication PMC12174528 (Asian Pacific Journal of Cancer Prevention : APJCP, 2025).

SMILES strings stand for the structures. In brackets after ≈: the same amount, converted by molar mass.

One data set has as its system MCF-7 cancer cell line. In words: Cell viability assay. Format: cell-based. The conditions noted are these: Homo sapiens, MCF7, 24 h, read-out: IC50 (cytotoxicity, SRB assay).
Another data set concerns MCF-7 colony formation. In words: Cell proliferation. The data set is classed as cell-based, human. The conditions noted are these: MCF-7, treated with IC50, 5 days; negative control 100%.
For another data set, the system named is MCF-7 cell migration. Briefly: Cell migration. Format: cell-based, human. The conditions noted are these: for migration area at 24 hours: MCF-7, treated with IC50, 24 hours, negative control 44.02%.
The test system of data set [1] is normal human diploid fibroblasts. The conditions noted are these: cited from earlier work.

`C[C@@H]1O[C@@H](O[C@@H]2[C@@H](O)[C@H](OCCc3ccc(O)c(O)c3)O[C@H](CO)[C@H]2OC(=O)/C=C/c2ccc(O)c(O)c2)[C@H](O)[C@H](O)[C@H]1O` [ACT, Acteoside]: the IC50 in the data set with MCF-7 cancer cell line stood at 135 µg/mL (≈ 216 µM). Besides, the “colony formation relative to the negative control” value in the data set with MCF-7 colony formation came out at 39.7%. For the same molecule, the “migration area at 24 hours” value in the data set on MCF-7 cell migration is recorded as 14.38%. In addition, the “toxic effects on normal human diploid fibroblasts” value in data set [1] is on record as “no toxic effects”.

As for `C[C@H]1c2cccc(O)c2C(=O)C2=C(O)[C@]3(O)C(=O)C(C(N)=O)=C(O)[C@@H](N(C)C)[C@@H]3[C@@H](O)[C@@H]21` [DOX, doxycycline], the half-inhibitory concentration (IC50) in the data set with MCF-7 cancer cell line came out at 343 µg/mL (≈ 773 µM). Also, the “colony formation relative to the negative control” value in the data set on MCF-7 colony formation came out at 35.56%. In addition, the “migration area at 24 hours” value in the data set with MCF-7 cell migration is on record as 6.8%. Moreover, the “migration area at 48 hours” value in the data set with MCF-7 cell migration (MCF-7, treated with IC50, 48 hours, negative control 53.99%) is -16.50%.
